Assay results: US12590864B2, “Wind tunnel for assessment of insecticides” (EAST CAROLINA UNIVERSITY, priority 2023, dated 2026)

Columns and labels:
Aedes albopictus = assay: CDC bottle bioassay (AI residue); type: in vivo; conditions: 30 min DT, Ae. albopictus; for mortality at the DT: 8 μg/mL residue
Method: (§1) Separate mosquitoes from the same populations used in wind tunnel experiments were also used in bottle bioassays, except for Ae. albopictus, F1, Craven County, NC that were used in wind tunnel but not bottle bioassays due to low sample size. Female mosquitoes (4-5 d old) were aspirated from colony cages, transferred to 500 mL glass Wheaton bottles (N=11-20 mosquitoes in each of three to four replicate bottles), and exposed constantly to technical grade permethrin AI residue (8 μg/mL) (Chem Service, Westchester, Pennsylvania) for a 120 min period using established CDC bottle bioassay methods and mortality was monitored/recorded at 0, 15, 30, 60, and 120 min (CDC 2013, 2019; Richards et al. 2017ab, 2019). Bottle bioassay control groups were transferred to clean bottles following the same established methods (CDC 2013, 2019; Richards et al. 2017ab, 2019). Diagnostic dose and diagnostic time (DT) were determined using susceptible populations of Ae. albopictus and Cx. quinquefasciatus (data not shown).
(§2) Female mosquitoes (4-5 d old) were aspirated from a separate colony cages, transferred to 500 mL glass Wheaton bottles, and exposed to AI residue using established CDC bottle bioassay methods and mortality was monitored/recorded at 15, 30, 60, and 120 min (FIG. 8). Bottle bioassay control groups were transferred to clean bottles following established methods (CDC 2013, 2019). At the 30 min DT for permethrin, Ae. albopictus, F48, Orleans Parish, Ae. albopictus, F0, New Hanover County, and Cx. pipiens quinquefasciatus, F219, Johannesburg were classified as susceptible (100% mortality at the DT); however, Cx. pipiens/quinquefasciatus, F1, New Hanover County (69% mortality) and Cx. pipiens/quinquefasciatus, F1, Pitt County County (57% mortality) were classified as resistant. FIG. 9 is a bar graph of the mortality of types of mosquitoes in the wind tunnel during bioassay exposure to permethrin.

[1] = test system: Culex pipiens/quinquefasciatus; assay: CDC bottle bioassay (AI residue); type: in vivo; conditions: 30 min DT; for mortality at the DT: 8 μg/mL residue
Method: as §1, §2

Cx. pipiens complex = conditions: five field populations; cited from earlier work
[2] = Cx. pipiens quinquefasciatus, F219, Johannesburg
[3] = Cx. pipiens/quinquefasciatus, F1, New Hanover County
[4] = Cx. pipiens/quinquefasciatus, F1, Pitt County

SMILES | mortality at the DT (Aedes albopictus; F0, New Hanover County) [%] | mortality at the DT (Aedes albopictus; F48, Orleans Parish) [%] | resistance classification (Aedes albopictus; F0, New Hanover County) | resistance classification (Aedes albopictus; F48, Orleans Parish) | mortality at the DT [1, 2] [%] | mortality at the DT [1, 3] [%] | mortality at the DT [1, 4] [%] | resistance classification [1, 2] | resistance classification [1, 3] | resistance classification [1, 4] | resistance classification (Cx. pipiens complex)
CC1(C)C(C=C(Cl)Cl)C1C(=O)OCc1cccc(Oc2ccccc2)c1 (centres unmarked) [permethrin] | 100 | 100 | susceptible | susceptible | 100 | 69 | 57 | susceptible | resistant | resistant | –
CC(C)=CC1C(C(=O)OCc2cccc(Oc3ccccc3)c2)C1(C)C (stereo not drawn) [Sumethrin®, d-phenothrin] | – | – | – | – | – | – | – | – | – | – | resistant
